Assay [1] addresses T1, BCL6 (Homo sapiens (Human), UniProt P41182). The assay can be described thus: BCL6 TR-FRET assay (BCL6-Avitag-Biotin / BCoR-Cy5 peptide). The format is binding. The procedure, abridged:
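TR-FRET displacement assay: biotinylated His-SUMO-BCL6-Avitag (2 nM) pre-incubated 30 min at room temperature with compound (12-point 3-fold titration), then BCoR-Cy5 peptide (100 nM) and Eu-streptavidin (2 nM) added. Buffer: 50 mM HEPES pH 7.5, 125 mM NaCl, 0.01% Triton X, glutathione or DTT, 0.03% BSA. Read after 2 h.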
On the technique in general: In TR-FRET formats the signal depends on donor and acceptor labels being close together.

Assay [2] deals with T1, BCL6. As to the kind of experiment: Immunofluorescence high content imaging of BCL6 degradation in T47D cells. It is filed as cell-based. Particulars: for Dmax: T47D. The procedure, abridged:
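T47D cells were treated 3 days at 37 °C with an 11-point 3-fold dilution series (top 0.1 or 1 μM), then fixed, permeabilized and immunostained for BCL6 with Alexa-488 secondary, CellMask and Hoechst. BCL6 signal was imaged at 10×, 4 fields/well, with top-hat smoothing.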

In general, EC50 refers to the concentration at which the effect is half-maximal. Broadly, the IC50 is the concentration needed to halve the response being measured. Low readings indicate greater potency, high ones weaker potency. Broadly, the Dmax is the largest share of the target that was removed. A lower Dmax goes with shallow degradation.

Bounds are passed on as bounds.

On to `CNC(=O)COc1cc2cc(Nc3nc(N4CCOC(COc5cccc6c5C(=O)N(C5CCC(=O)NC5=O)C6=O)C4)ncc3Cl)ccc2n(C)c1=O` (stereo not drawn) [compound 226, 2-((6-((5-chloro-2-(2-(((2-(2,6-dioxopiperidin-3-yl)-1,3-dioxoisoindolin-4-yl)oxy)methyl)morpholino)pyrimidin-4-yl)amino)-1-methyl-2-oxo-1,2-dihydroquinolin-3-yl)oxy)-N-methylacetamide], for which the EC50 in assay [1] lay in the range of 10 to 50 nM. Besides, in assay [2], the IC50 fell in the range of 50 to 100 nM and the greatest degradation seen (Dmax) is below 50%.

With `CNC(=O)COc1cc2cc(Nc3nc(N4CCC(OC5CN(c6ccc7c(c6)C(=O)N(C6CCC(=O)NC6=O)C7=O)C5)CC4)ncc3Cl)ccc2n(C)c1=O` (stereo not drawn) [compound 227, 2-((6-((5-chloro-2-(4-((1-(2-(2,6-dioxopiperidin-3-yl)-1,3-dioxoisoindolin-5-yl)azetidin-3-yl)oxy)piperidin-1-yl)pyrimidin-4-yl)amino)-1-methyl-2-oxo-1,2-dihydroquinolin-3-yl)oxy)-N-methylacetamide], in assay [1], the concentration giving a half-maximal response (EC50) was above 100 nM. In assay [2], this molecule yielded an IC50 below 10 nM and a Dmax below 50%.

The molecule `CNC(=O)COc1cc2cc(Nc3nc(N4CCO[C@H](COc5ccc6c(c5)C(=O)N(C5CCC(=O)NC5=O)C6=O)C4)ncc3Cl)ccc2n(C)c1=O` (stereo partly drawn) [compound 228, 2-((6-((5-chloro-2-((2S)-2-(((2-(2,6-dioxopiperidin-3-yl)-1,3-dioxoisoindolin-5-yl)oxy)methyl)morpholino)pyrimidin-4-yl)amino)-1-methyl-2-oxo-1,2-dihydroquinolin-3-yl)oxy)-N-methylacetamide] returned a concentration for a half-maximal effect (EC50) in assay [1] above 100 nM. In assay [2], the concentration for half-maximal inhibition (IC50) was at least 100 nM and the Dmax lay in the range of 50 to 70%.

In assay [1], `CNC(=O)COc1cc2cc(Nc3nc(N4CCN(CCN5CCN(c6ccc7c(c6)C(=O)N(C6CCC(=O)NC6=O)C7=O)CC5)CC4)ncc3Cl)ccc2n(C)c1=O` (stereo not drawn) [compound 229, 2-((6-((5-chloro-2-(4-(2-(4-(2-(2,6-dioxopiperidin-3-yl)-1,3-dioxoisoindolin-5-yl)piperazin-1-yl)ethyl)piperazin-1-yl)pyrimidin-4-yl)amino)-1-methyl-2-oxo-1,2-dihydroquinolin-3-yl)oxy)-N-methylacetamide] showed an EC50 of 10 to 50 nM. In assay [2], this molecule displayed a 50% inhibitory concentration (IC50) of 10 to 50 nM and a Dmax of 50 to 70%.

On to `CNC(=O)COc1cc2cc(Nc3nc(N4CCN(CCCN5CCN(c6ccc7c(c6)C(=O)N(C6CCC(=O)NC6=O)C7=O)CC5)CC4)ncc3Cl)ccc2n(C)c1=O` (stereo not drawn) [compound 230, 2-((6-((5-chloro-2-(4-(3-(4-(2-(2,6-dioxopiperidin-3-yl)-1,3-dioxoisoindolin-5-yl)piperazin-1-yl)propyl)piperazin-1-yl)pyrimidin-4-yl)amino)-1-methyl-2-oxo-1,2-dihydroquinolin-3-yl)oxy)-N-methylacetamide], for which the EC50 in assay [1] was below 10 nM. In assay [2], this molecule showed an IC50 of 10 to 50 nM and a Dmax below 50%.

In assay [1], `CNC(=O)COc1cc2cc(Nc3nc(N4CCN(C)C(COc5cccc6c5C(=O)N(C5CCC(=O)NC5=O)C6=O)C4)ncc3Cl)ccc2n(C)c1=O` (stereo not drawn) [compound 231, 2-((6-((5-chloro-2-(3-(((2-(2,6-dioxopiperidin-3-yl)-1,3-dioxoisoindolin-4-yl)oxy)methyl)-4-methylpiperazin-1-yl)pyrimidin-4-yl)amino)-1-methyl-2-oxo-1,2-dihydroquinolin-3-yl)oxy)-N-methylacetamide] registered a half-maximal effective concentration (EC50) of 50 to 100 nM. The same molecule displayed a 50% inhibitory concentration (IC50) in assay [2] of at least 100 nM.

In assay [1], `CNC(=O)COc1cc2cc(Nc3nc(N4CCN(CC5CCN(c6ccc(C(=O)NC7CCC(=O)NC7=O)nc6)CC5)CC4)ncc3Cl)ccc2n(C)c1=O` (stereo not drawn) [compound 232, 5-(4-((4-(5-chloro-4-((1-methyl-3-(2-(methylamino)-2-oxoethoxy)-2-oxo-1,2-dihydroquinolin-6-yl)amino)pyrimidin-2-yl)piperazin-1-yl)methyl)piperidin-1-yl)-N-(2,6-dioxopiperidin-3-yl)picolinamide] displayed an EC50 above 100 nM. Besides, in assay [2], the IC50 lay within 10 to 50 nM and the Dmax was below 50%.

Molecule `CNC(=O)COc1cc2cc(Nc3nc(N4CCN(CC5CCN(c6ccc(C(=O)NC7CCC(=O)NC7=O)c(F)c6)CC5)CC4)ncc3Cl)ccc2n(C)c1=O` (stereo not drawn) [compound 233, 4-(4-((4-(5-chloro-4-((1-methyl-3-(2-(methylamino)-2-oxoethoxy)-2-oxo-1,2-dihydroquinolin-6-yl)amino)pyrimidin-2-yl)piperazin-1-yl)methyl)piperidin-1-yl)-N-(2,6-dioxopiperidin-3-yl)-2-fluorobenzamide] gave an EC50 in assay [1] above 100 nM. Besides, in assay [2], the IC50 is at least 100 nM and the Dmax was below 50%.

Take `CNC(=O)COc1cc2cc(Nc3nc(N4CCN5CCN(c6ccc7c(c6)C(=O)N(C6CCC(=O)NC6=O)C7=O)CC5C4)ncc3Cl)ccc2n(C)c1=O` (stereo not drawn) [compound 234, 2-((6-((5-chloro-2-(8-(2-(2,6-dioxopiperidin-3-yl)-1,3-dioxoisoindolin-5-yl)octahydro-2H-pyrazino[1,2-a]pyrazin-2-yl)pyrimidin-4-yl)amino)-1-methyl-2-oxo-1,2-dihydroquinolin-3-yl)oxy)-N-methylacetamide]: in assay [1], the EC50 was below 10 nM. In addition, the IC50 in assay [2] is at least 100 nM.

In the case of `Cn1c(=O)c(-c2cnoc2)cc2cc(Nc3nc(N4CCC(CN5CCN(c6ccc7c(c6)C(=O)N(C6CCC(=O)NC6=O)C7=O)CC5)CC4)ncc3Cl)ccc21` (stereo not drawn) [compound 235, 5-(4-((1-(5-chloro-4-((3-(isoxazol-4-yl)-1-methyl-2-oxo-1,2-dihydroquinolin-6-yl)amino)pyrimidin-2-yl)piperidin-4-yl)methyl)piperazin-1-yl)-2-(2,6-dioxopiperidin-3-yl)isoindoline-1,3-dione], the EC50 in assay [1] is above 100 nM. In assay [2], this molecule displayed an IC50 of at least 100 nM.

In assay [1], `CC(=O)COc1cc2cc(Nc3nc(N4CCN(CCCN5CCN(c6ccc7c(c6)C(=O)N(C6CCC(=O)NC6=O)C7=O)CC5)CC4)ncc3Cl)ccc2n(C)c1=O` (stereo not drawn) [compound 236, 5-(4-(3-(4-(5-chloro-4-((1-methyl-2-oxo-3-(2-oxopropoxy)-1,2-dihydroquinolin-6-yl)amino)pyrimidin-2-yl)piperazin-1-yl)propyl)piperazin-1-yl)-2-(2,6-dioxopiperidin-3-yl)isoindoline-1,3-dione] had an EC50 below 10 nM. In assay [2], this molecule registered a 50% inhibitory concentration (IC50) of 10 to 50 nM and a Dmax of 50 to 70%.

For the molecule `CNC(=O)COc1cc2cc(Nc3nc(N4CCC[C@H](COc5ccc6c(c5)C(=O)N(C5CCC(=O)NC5=O)C6=O)C4)ncc3Cl)ccc2n(C)c1=O` (stereo partly drawn) [compound 237, 2-((6-((5-chloro-2-((3S)-3-(((2-(2,6-dioxopiperidin-3-yl)-1,3-dioxoisoindolin-5-yl)oxy)methyl)piperidin-1-yl)pyrimidin-4-yl)amino)-1-methyl-2-oxo-1,2-dihydroquinolin-3-yl)oxy)-N-methylacetamide], the EC50 in assay [1] was in the range of 10 to 50 nM. In assay [2], this molecule came in with an IC50 of 10 to 50 nM and a Dmax below 50%.

Take `CNC(=O)COc1cc2cc(Nc3nc(N4CCN(C(C)(C)C5CCN(c6ccc7c(c6)CN(C6CCC(=O)NC6=O)C7=O)CC5)CC4)ncc3Cl)ccc2n(C)c1=O` (stereo not drawn) [compound 270, 2-{[6-({5-chloro-2-[4-(2-{1-[2-(2,6-dioxopiperidin-3-yl)-1-oxo-2,3-dihydro-1H-isoindol-5-yl]piperidin-4-yl}propan-2-yl)piperazin-1-yl]pyrimidin-4-yl}amino)-1-methyl-2-oxo-1,2-dihydroquinolin-3-yl]oxy}-N-methylacetamide]: the half-maximal effective concentration (EC50) in assay [1] was 10 to 50 nM. In assay [2], this molecule registered an IC50 below 10 nM and a Dmax of at least 70%.

In turn, `CNC(=O)COc1cc2cc(Nc3nc(N4CCOC(CN5CCN(c6cccc7c6C(=O)N(C6CCC(=O)NC6=O)C7=O)CC5)C4)ncc3Cl)ccc2n(C)c1=O` (stereo not drawn) [compound 271, 2-{[6-({5-chloro-2-[2-({4-[2-(2,6-dioxopiperidin-3-yl)-1,3-dioxo-2,3-dihydro-1H-isoindol-4-yl]piperazin-1-yl}methyl)morpholin-4-yl]pyrimidin-4-yl}amino)-1-methyl-2-oxo-1,2-dihydroquinolin-3-yl]oxy}-N-methylacetamide] came in with an EC50 in assay [1] of 10 to 50 nM. In assay [2], this molecule gave an IC50 of 50 to 100 nM and a Dmax of 50 to 70%.

`CNC(=O)COc1cc2cc(Nc3nc(N4CCOC(CN5CCN(c6ccc7c(c6)C(=O)N(C6CCC(=O)NC6=O)C7=O)CC5)C4)ncc3Cl)ccc2n(C)c1=O` (stereo not drawn) [compound 272, 2-{[6-({5-chloro-2-[2-({4-[2-(2,6-dioxopiperidin-3-yl)-1,3-dioxo-2,3-dihydro-1H-isoindol-5-yl]piperazin-1-yl}methyl)morpholin-4-yl]pyrimidin-4-yl}amino)-1-methyl-2-oxo-1,2-dihydroquinolin-3-yl]oxy}-N-methylacetamide] displayed an EC50 in assay [1] below 10 nM. Further, in assay [2], the IC50 was 10 to 50 nM and the Dmax lay within 50 to 70%.

With `CNC(=O)COc1cc2cc(Nc3nc(N4CCN(CC5CCN(c6cnc(C(=O)NC7CCC(=O)NC7=O)nc6)CC5)CC4)ncc3Cl)ccc2n(C)c1=O` (stereo not drawn) [compound 273, 5-[4-({4-[5-chloro-4-({1-methyl-3-[(methylcarbamoyl)methoxy]-2-oxo-1,2-dihydroquinolin-6-yl}amino)pyrimidin-2-yl]piperazin-1-yl}methyl)piperidin-1-yl]-N-(2,6-dioxopiperidin-3-yl)pyrimidine-2-carboxamide], in assay [1], the EC50 lay within 10 to 50 nM. In addition, in assay [2], the IC50 fell in the range of 50 to 100 nM and the Dmax was below 50%.

For the origin of these results see US12310975B2, “Modulators of BCL6 proteolysis and associated methods of use” (Arvinas Operations, Inc., priority 2019, dated 2025).
